{"source": "patent US12077503B2", "about": "“Substituted cyclic amides and their use as herbicides” (FMC CORPORATION, priority 2015, dated 2024)", "assay_in_all_cases": "Test C preemergence", "type_in_all_cases": "in vivo", "key": {"[1]": {"tested_on": "Galium (catchweed bedstraw, Galium aparine)", "settings": "for Plant response rating, Galium: scale 0 to 100, 0 no effect, 100 complete control", "in_short": "(§1)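 Greenhouse test: seeds in a loam and sand blend treated preemergence, or seedlings at the 1- to 4-leaf stage (2 to 18 cm) in a peat, vermiculite and limestone mix treated postemergence, with test chemicals in a surfactant-containing non-phytotoxic solvent. Scored by eye at 13 to 15 d relative to controls, 0 (no effect) to 100 (complete control).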"}, "[2]": {"tested_on": "barnyardgrass (Echinochloa crus-galli)", "settings": "for Plant response rating, Barnyardgrass: scale 0 to 100, 0 no effect, 100 complete control", "in_short": "as §1"}, "[3]": {"tested_on": "blackgrass (Alopecurus myosuroides)", "settings": "for Plant response rating, Blackgrass: scale 0 to 100, 0 no effect, 100 complete control", "in_short": "as §1"}, "corn (Zea mays)": {"tested_on": "corn (Zea mays)", "settings": "for Plant response rating, Corn: scale 0 to 100, 0 no effect, 100 complete control", "in_short": "as §1"}, "[4]": {"tested_on": "crabgrass, large (large crabgrass, Digitaria sanguinalis)", "settings": "for Plant response rating, Crabgrass, Large: scale 0 to 100, 0 no effect, 100 complete control", "in_short": "as §1"}, "[5]": {"tested_on": "foxtail, giant (giant foxtail, Setaria faberii)", "settings": "for Plant response rating, Foxtail, Giant: scale 0 to 100, 0 no effect, 100 complete control", "in_short": "as §1"}, "[6]": {"tested_on": "lambsquarters (Chenopodium album)", "settings": "for Plant response rating, Lambsquarters: scale 0 to 100, 0 no effect, 100 complete control", "in_short": "as §1"}, "[7]": {"tested_on": "morningglory (Ipomoea coccinea)", "settings": "for Plant response rating, Morningglory: scale 0 to 100, 0 no effect, 100 complete control", "in_short": "as §1"}, "[8]": {"tested_on": "nutsedge, yellow (yellow nutsedge, Cyperus esculentus)", "settings": "for Plant response rating, Nutsedge, Yellow: scale 0 to 100, 0 no effect, 100 complete control", "in_short": "as §1"}, "[9]": {"tested_on": "oilseed rape (Brassica napus)", "settings": "for Plant response rating, Oilseed Rape: scale 0 to 100, 0 no effect, 100 complete control", "in_short": "as §1"}, "[10]": {"tested_on": "pigweed (Amaranthus retroflexus)", "settings": "for Plant response rating, Pigweed: scale 0 to 100, 0 no effect, 100 complete control", "in_short": "as §1"}, "[11]": {"tested_on": "ragweed (common ragweed, Ambrosia elatior)", "settings": "for Plant response rating, Ragweed: scale 0 to 100, 0 no effect, 100 complete control", "in_short": "as §1"}, "[12]": {"tested_on": "ryegrass, Italian (Italian ryegrass, Lolium multiflorum)", "settings": "for Plant response rating, Ryegrass, Italian: scale 0 to 100, 0 no effect, 100 complete control", "in_short": "as §1"}, "soybean (Glycine max)": {"tested_on": "soybean (Glycine max)", "settings": "for Plant response rating, Soybean: scale 0 to 100, 0 no effect, 100 complete control", "in_short": "as §1"}, "[13]": {"tested_on": "velvetleaf (Abutilon theophrasti)", "settings": "for Plant response rating, Velvetleaf: scale 0 to 100, 0 no effect, 100 complete control", "in_short": "as §1"}, "[14]": {"tested_on": "waterhemp (common waterhemp, Amaranthus rudis)", "settings": "for Plant response rating, Waterhemp: scale 0 to 100, 0 no effect, 100 complete control", "in_short": "as §1"}, "[15]": {"tested_on": "wheat (winter wheat, Triticum aestivum)", "settings": "for Plant response rating, Wheat: scale 0 to 100, 0 no effect, 100 complete control", "in_short": "as §1"}, "[16]": {"settings": "31 g ai/ha, 0 is no effect, 100 is complete control"}}, "data": [{"smiles": "Cc1ccc(C2CN(C)C(=O)C2C(=O)Nc2cccc(F)c2F)cc1", "note": "(centres unmarked) [Compound 662]", "values": [{"measurement": "Plant response rating (scale of 0 to 100), Galium", "setting": "[1]; [16]", "result": 90}, {"measurement": "Plant response rating, Galium", "setting": "[1]; 62 g ai/ha", "result": 100}, {"measurement": "Plant response rating, Galium", "setting": "[1]; 125 g ai/ha", "result": 100}, {"measurement": "Plant response rating, Galium", "setting": "[1]; 250 g ai/ha", "result": 90}, {"measurement": "Plant response rating (scale of 0 to 100), Barnyardgrass", "setting": "[2]; [16]", "result": 95}, {"measurement": "Plant response rating, Barnyardgrass", "setting": "[2]; 62 g ai/ha", "result": 98}, {"measurement": "Plant response rating, Barnyardgrass", "setting": "[2]; 125 g ai/ha", "result": 98}, {"measurement": "Plant response rating, Barnyardgrass", "setting": "[2]; 250 g ai/ha", "result": 100}, {"measurement": "Plant response rating (scale of 0 to 100), Blackgrass", "setting": "[3]; [16]", "result": 70}, {"measurement": "Plant response rating, Blackgrass", "setting": "[3]; 62 g ai/ha", "result": 75}, {"measurement": "Plant response rating, Blackgrass", "setting": "[3]; 125 g ai/ha", "result": 95}, {"measurement": "Plant response rating, Blackgrass", "setting": "[3]; 250 g ai/ha", "result": 98}, {"measurement": "Plant response rating (scale of 0 to 100), Corn", "setting": "corn (Zea mays); [16]", "result": 55}, {"measurement": "Plant response rating, Corn", "setting": "corn (Zea mays); 62 g ai/ha", "result": 70}, {"measurement": "Plant response rating, Corn", "setting": "corn (Zea mays); 125 g ai/ha", "result": 80}, {"measurement": "Plant response rating, Corn", "setting": "corn (Zea mays); 250 g ai/ha", "result": 85}, {"measurement": "Plant response rating (scale of 0 to 100), Crabgrass, Large", "setting": "[4]; [16]", "result": 98}, {"measurement": "Plant response rating, Crabgrass, Large", "setting": "[4]; 62 g ai/ha", "result": 98}, {"measurement": "Plant response rating, Crabgrass, Large", "setting": "[4]; 125 g ai/ha", "result": 100}, {"measurement": "Plant response rating, Crabgrass, Large", "setting": "[4]; 250 g ai/ha", "result": 100}, {"measurement": "Plant response rating (scale of 0 to 100), Foxtail, Giant", "setting": "[5]; [16]", "result": 95}, {"measurement": "Plant response rating, Foxtail, Giant", "setting": "[5]; 62 g ai/ha", "result": 95}, {"measurement": "Plant response rating, Foxtail, Giant", "setting": "[5]; 125 g ai/ha", "result": 95}, {"measurement": "Plant response rating, Foxtail, Giant", "setting": "[5]; 250 g ai/ha", "result": 98}, {"measurement": "Plant response rating (scale of 0 to 100), Lambsquarters", "setting": "[6]; [16]", "result": 100}, {"measurement": "Plant response rating, Lambsquarters", "setting": "[6]; 62 g ai/ha", "result": 85}, {"measurement": "Plant response rating, Lambsquarters", "setting": "[6]; 125 g ai/ha", "result": 100}, {"measurement": "Plant response rating, Lambsquarters", "setting": "[6]; 250 g ai/ha", "result": 100}, {"measurement": "Plant response rating (scale of 0 to 100), Morningglory", "setting": "[7]; [16]", "result": 0}, {"measurement": "Plant response rating, Morningglory", "setting": "[7]; 62 g ai/ha", "result": 0}, {"measurement": "Plant response rating, Morningglory", "setting": "[7]; 125 g ai/ha", "result": 30}, {"measurement": "Plant response rating, Morningglory", "setting": "[7]; 250 g ai/ha", "result": 25}, {"measurement": "Plant response rating (scale of 0 to 100), Nutsedge, Yellow", "setting": "[8]; [16]", "result": 0}, {"measurement": "Plant response rating, Nutsedge, Yellow", "setting": "[8]; 62 g ai/ha", "result": 0}, {"measurement": "Plant response rating, Nutsedge, Yellow", "setting": "[8]; 125 g ai/ha", "result": 0}, {"measurement": "Plant response rating, Nutsedge, Yellow", "setting": "[8]; 250 g ai/ha", "result": 0}, {"measurement": "Plant response rating (scale of 0 to 100), Oilseed Rape", "setting": "[9]; [16]", "result": 70}, {"measurement": "Plant response rating, Oilseed Rape", "setting": "[9]; 62 g ai/ha", "result": 85}, {"measurement": "Plant response rating, Oilseed Rape", "setting": "[9]; 125 g ai/ha", "result": 90}, {"measurement": "Plant response rating, Oilseed Rape", "setting": "[9]; 250 g ai/ha", "result": 90}, {"measurement": "Plant response rating (scale of 0 to 100), Pigweed", "setting": "[10]; [16]", "result": 70}, {"measurement": "Plant response rating, Pigweed", "setting": "[10]; 62 g ai/ha", "result": 60}, {"measurement": "Plant response rating, Pigweed", "setting": "[10]; 125 g ai/ha", "result": 75}, {"measurement": "Plant response rating, Pigweed", "setting": "[10]; 250 g ai/ha", "result": 80}, {"measurement": "Plant response rating (scale of 0 to 100), Ragweed", "setting": "[11]; [16]", "result": 70}, {"measurement": "Plant response rating, Ragweed", "setting": "[11]; 62 g ai/ha", "result": 75}, {"measurement": "Plant response rating, Ragweed", "setting": "[11]; 125 g ai/ha", "result": 80}, {"measurement": "Plant response rating, Ragweed", "setting": "[11]; 250 g ai/ha", "result": 85}, {"measurement": "Plant response rating (scale of 0 to 100), Ryegrass, Italian", "setting": "[12]; [16]", "result": 50}, {"measurement": "Plant response rating, Ryegrass, Italian", "setting": "[12]; 62 g ai/ha", "result": 70}, {"measurement": "Plant response rating, Ryegrass, Italian", "setting": "[12]; 125 g ai/ha", "result": 80}, {"measurement": "Plant response rating, Ryegrass, Italian", "setting": "[12]; 250 g ai/ha", "result": 95}, {"measurement": "Plant response rating (scale of 0 to 100), Soybean", "setting": "soybean (Glycine max); [16]", "result": 0}, {"measurement": "Plant response rating, Soybean", "setting": "soybean (Glycine max); 62 g ai/ha", "result": 0}, {"measurement": "Plant response rating, Soybean", "setting": "soybean (Glycine max); 125 g ai/ha", "result": 0}, {"measurement": "Plant response rating, Soybean", "setting": "soybean (Glycine max); 250 g ai/ha", "result": 0}, {"measurement": "Plant response rating (scale of 0 to 100), Velvetleaf", "setting": "[13]; [16]", "result": 35}, {"measurement": "Plant response rating, Velvetleaf", "setting": "[13]; 62 g ai/ha", "result": 50}, {"measurement": "Plant response rating, Velvetleaf", "setting": "[13]; 125 g ai/ha", "result": 70}, {"measurement": "Plant response rating, Velvetleaf", "setting": "[13]; 250 g ai/ha", "result": 75}, {"measurement": "Plant response rating (scale of 0 to 100), Waterhemp", "setting": "[14]; [16]", "result": 60}, {"measurement": "Plant response rating, Waterhemp", "setting": "[14]; 62 g ai/ha", "result": 80}, {"measurement": "Plant response rating, Waterhemp", "setting": "[14]; 125 g ai/ha", "result": 85}, {"measurement": "Plant response rating, Waterhemp", "setting": "[14]; 250 g ai/ha", "result": 90}, {"measurement": "Plant response rating (scale of 0 to 100), Wheat", "setting": "[15]; [16]", "result": 35}, {"measurement": "Plant response rating, Wheat", "setting": "[15]; 62 g ai/ha", "result": 70}, {"measurement": "Plant response rating, Wheat", "setting": "[15]; 125 g ai/ha", "result": 90}, {"measurement": "Plant response rating, Wheat", "setting": "[15]; 250 g ai/ha", "result": 90}]}]}
